Assays:
Assay in all cases: Inhibition of guinea pig heart Phosphodiesterase 3
PDE3 (Cavia porcellus) [1] = biological target: PDE3 (Cavia porcellus)
PDE3 (Cavia porcellus) [2] = biological target: PDE3 (Cavia porcellus); remark: listed apart in the source
PDE3 (Cavia porcellus) [3] = biological target: PDE3 (Cavia porcellus); remark: listed apart in the source

IC50 (PDE3 (Cavia porcellus) [1]): 50 nM
IC50 (PDE3 (Cavia porcellus) [2]): 60 nM
IC50 (PDE3 (Cavia porcellus) [3]): 60 nM
SMILES: COc1ccc(C(=O)N2CCCc3cc(C4=NNC(=O)S[C@@H]4C)ccc32)cc1OC
